Assay results taken from patent publication US12391687B2, “Five-and-six-membered heterocyclic compound and use thereof as protein receptor kinase inhibitor” (SHANGHAI ENNOVABIO PHARMACEUTICALS CO., LTD., priority 2018, dated 2025).

Assays:
Format in all cases: biochemical
[1] = molecular target: Recombinant human TRKA (Homo sapiens (Human), UniProt P04629); assay: In vitro activity test on TRKA kinase (HTRF kinEASE TK); conditions: 14.68 μM ATP, 40 min, room temperature
Procedure: (§1) Recombinant human TRKA, TRKB, TRKC proteins were purchased from Carna Biosciences. HTRF kinEASE TK kit was purchased from Cisbio Bioassays. Synergy Neo 2 of Biotek was used to read the plate.
(§2) The tested compounds were subjected to 3-fold serial dilution to reach a final concentration of 1 μM to 0.05 nM (10 concentrations), duplicates for each concentration; and the DMSO concentration in the detection reaction was 1%.
0.2 ng/μL TRKA protein kinase, 1 μM TK Substrate-biotin polypeptide substrate, 14.68 μM ATP, 1×enzymatic buffer, 5 mM MgCl2, and 1 mM DTT. The assay plate was White Proxiplate384-Plus plate (PerkinElmer), and the reaction was incubated at room temperature for 40 min, and the assay volume was 10 μL.
(§3) 10 μL of detection reagent (containing 0.125 μM SA-XL665 and 5 μL 1×TK-Antibody) was added to the plate and incubated overnight at room temperature. Synergy Neo 2 was used to read the plate.
(§4) The 665/620 Ratio was converted according to the following formula into inhibition rate (%)=(1−Ratiotest/Ratiomax)×100%. Ratiomax was the value of positive controls without tested compound, and Ratiotest was the value of each concentration of different compounds. IC50 (nM) data was obtained by 4 parameter curve fitting (see Table 1).

[2] = molecular target: Recombinant human TRKB (Homo sapiens (Human), UniProt Q16620); assay: In vitro activity test on TRKB kinase (HTRF kinEASE TK); conditions: 4.77 μM ATP, 50 min, room temperature
Procedure: as §1, §2
(§5) 0.037 ng/μL TRKB protein kinase, 1 μM TK Substrate-biotin polypeptide substrate, 4.77 μM ATP, 1× enzymatic buffer, 5 mM MgCl2, 1 mM MnCl2 and 1 mM DTT. The assay plate was White Proxiplate 384-Plus plate (PerkinElmer), the reaction was incubated at room temperature for 50 min, and the assay volume was 10 μL.
as §3, §4

[3] = molecular target: Recombinant human TRKC (Homo sapiens (Human), UniProt Q16288); assay: In vitro activity test on TRKC kinase (HTRF kinEASE TK); conditions: 25.64 μM ATP, 40 min, room temperature
Procedure: as §1, §2
as §5, with “ng/μL TRKC” for “ng/μL TRKB”, “substrate, 25.64” for “substrate, 4.77”, “MgCl2,” for “MgCl2, 1 mM MnCl2”, “The detection” for “The assay”, “for 40” for “for 50”
as §3, §4

Sequence of Recombinant human TRKA (P04629 33-796): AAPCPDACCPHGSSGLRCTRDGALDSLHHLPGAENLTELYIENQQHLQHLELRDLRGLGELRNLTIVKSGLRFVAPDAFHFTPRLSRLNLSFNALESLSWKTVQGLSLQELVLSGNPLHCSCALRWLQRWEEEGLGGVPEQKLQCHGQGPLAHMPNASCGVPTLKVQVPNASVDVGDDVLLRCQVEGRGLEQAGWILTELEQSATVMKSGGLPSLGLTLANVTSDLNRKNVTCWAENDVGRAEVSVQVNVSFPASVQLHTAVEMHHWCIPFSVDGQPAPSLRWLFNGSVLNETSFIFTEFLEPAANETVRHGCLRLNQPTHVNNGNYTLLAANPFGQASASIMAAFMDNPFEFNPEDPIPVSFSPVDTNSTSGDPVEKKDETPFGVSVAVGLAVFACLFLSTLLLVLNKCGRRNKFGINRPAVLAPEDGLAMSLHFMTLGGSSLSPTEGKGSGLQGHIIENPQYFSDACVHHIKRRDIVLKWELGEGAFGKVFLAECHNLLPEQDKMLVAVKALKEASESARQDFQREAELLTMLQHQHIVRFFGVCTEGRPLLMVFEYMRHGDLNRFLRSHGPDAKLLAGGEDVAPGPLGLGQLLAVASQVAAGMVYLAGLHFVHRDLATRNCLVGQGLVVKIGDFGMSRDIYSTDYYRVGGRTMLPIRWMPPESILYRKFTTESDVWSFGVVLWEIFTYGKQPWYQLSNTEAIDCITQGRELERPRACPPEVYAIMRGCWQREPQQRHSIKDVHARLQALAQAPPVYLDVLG
Sequence of Recombinant human TRKC (Q16288 32-839): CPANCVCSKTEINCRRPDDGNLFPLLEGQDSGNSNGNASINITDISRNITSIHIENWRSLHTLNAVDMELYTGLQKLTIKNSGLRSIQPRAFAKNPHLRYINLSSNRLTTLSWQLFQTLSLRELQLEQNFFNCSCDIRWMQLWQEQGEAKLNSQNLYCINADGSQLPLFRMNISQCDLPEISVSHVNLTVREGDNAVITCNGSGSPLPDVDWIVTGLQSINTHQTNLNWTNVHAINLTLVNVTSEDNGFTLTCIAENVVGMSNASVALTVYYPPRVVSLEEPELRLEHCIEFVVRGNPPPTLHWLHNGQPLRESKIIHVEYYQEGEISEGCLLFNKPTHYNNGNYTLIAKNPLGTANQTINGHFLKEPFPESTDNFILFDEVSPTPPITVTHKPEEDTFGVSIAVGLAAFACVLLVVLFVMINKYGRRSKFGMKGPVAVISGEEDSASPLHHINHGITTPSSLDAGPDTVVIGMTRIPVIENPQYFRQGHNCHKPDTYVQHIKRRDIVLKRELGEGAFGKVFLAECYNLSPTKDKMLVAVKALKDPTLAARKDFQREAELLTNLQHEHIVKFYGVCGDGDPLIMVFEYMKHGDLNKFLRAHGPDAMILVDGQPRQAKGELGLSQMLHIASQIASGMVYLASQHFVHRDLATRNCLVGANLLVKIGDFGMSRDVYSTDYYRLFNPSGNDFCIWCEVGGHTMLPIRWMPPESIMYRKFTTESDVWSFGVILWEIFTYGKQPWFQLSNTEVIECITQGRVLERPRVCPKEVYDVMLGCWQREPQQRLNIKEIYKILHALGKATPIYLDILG
Sequence of Recombinant human TRKB (Q16620 32-822): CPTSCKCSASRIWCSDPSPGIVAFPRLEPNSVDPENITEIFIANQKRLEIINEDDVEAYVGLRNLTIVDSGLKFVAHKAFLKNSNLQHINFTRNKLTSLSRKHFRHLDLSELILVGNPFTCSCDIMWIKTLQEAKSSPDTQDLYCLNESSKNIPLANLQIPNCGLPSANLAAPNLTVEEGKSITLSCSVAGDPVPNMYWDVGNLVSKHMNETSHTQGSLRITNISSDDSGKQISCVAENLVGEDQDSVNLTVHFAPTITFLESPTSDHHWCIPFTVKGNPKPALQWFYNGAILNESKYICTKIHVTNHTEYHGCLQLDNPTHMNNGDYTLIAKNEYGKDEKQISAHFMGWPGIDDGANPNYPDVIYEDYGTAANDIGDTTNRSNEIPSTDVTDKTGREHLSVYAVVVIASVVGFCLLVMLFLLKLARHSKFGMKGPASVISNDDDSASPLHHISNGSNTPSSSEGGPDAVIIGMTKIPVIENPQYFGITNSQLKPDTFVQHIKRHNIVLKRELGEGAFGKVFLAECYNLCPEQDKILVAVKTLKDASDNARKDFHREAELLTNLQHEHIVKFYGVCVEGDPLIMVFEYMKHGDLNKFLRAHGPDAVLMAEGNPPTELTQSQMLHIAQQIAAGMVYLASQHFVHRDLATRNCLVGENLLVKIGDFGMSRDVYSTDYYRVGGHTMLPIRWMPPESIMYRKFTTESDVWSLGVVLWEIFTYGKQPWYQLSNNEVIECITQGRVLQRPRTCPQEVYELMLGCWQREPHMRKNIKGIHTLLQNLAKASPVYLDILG

Row | Structure (SMILES) | IC50 [1] [nM] | IC50 [2] [nM] | IC50 [3] [nM]
1 | CNC(=O)CC1(O)CCN(C(=O)Nc2cnc3[nH]nc(N4CCC[C@@H]4c4cc(F)ccc4F)c3c2)C1 (stereo partly drawn) [Example 1, N-(3-((R)-2-(2,5-difluorophenyl)pyrrolidin-1-yl)-1H-pyrazolo[3,4-b]pyridin-5-yl)-3-hydroxy-3-(2-(methylamino)-2-oxoethyl)pyrrolidine-1-carboxamide] | < 500 | < 500 | < 500
2 | O=C(Nc1cnc2[nH]nc(N3CCC[C@@H]3c3cc(F)ccc3F)c2c1)N1CC[C@H](O)C1 [Example 2, (S)—N-(3-((R)-2-(2,5-difluorophenyl)pyrrolidin-1-yl)-1H-pyrazolo[3,4-b]pyridin-5-yl)-3-hydroxypyrrolidine-1-carboxamide] | < 500 | < 500 | < 500
3 | O=C(Nc1cnc2[nH]nc(N3CCC[C@@H]3c3cc(F)ccc3F)c2c1)c1ccc(N2CC[C@H](O)C2)nc1 [Example 3, N-(3-((R)-2-(2,5-difluorophenyl)pyrrolidin-1-yl)-1H-pyrazolo[3,4-b]pyridin-5-yl)-6-((S)-3-hydroxypyrrolidin-1-yl)nicotinamide] | < 50 | < 100 | < 50
4 | NC(=O)c1cnc2[nH]nc(N3CCC[C@@H]3c3cc(F)ccc3F)c2c1 [Example 4, (R)-3-(2-(2,5-difluorophenyl)pyrrolidin-1-yl)-1H-pyrazolo[3,4-b]pyridine-5-carboxamide] | < 10 | < 10 | < 10
5 | O=C(NCCO)c1cnc2[nH]nc(N3CCC[C@@H]3c3cc(F)ccc3F)c2c1 [Example 6, (R)-3-(2-(2,5-difluorophenyl)pyrrolidin-1-yl)-N-(2-hydroxyethyl)-1H-pyrazolo[3,4-b]pyridine-5-carboxamide] | < 50 | < 50 | < 50
6 | COCCNC(=O)c1cnc2[nH]nc(N3CCC[C@@H]3c3cc(F)ccc3F)c2c1 [Example 8, (R)-3-(2-(2,5-difluorophenyl)pyrrolidin-1-yl)-N-(2-methoxyethyl)-1H-pyrazolo[3,4-b]pyridine-5-carboxamide] | < 50 | < 10 | < 10
7 | O=C(NCCCO)c1cnc2[nH]nc(N3CCC[C@@H]3c3cc(F)ccc3F)c2c1 [Example 9, (R)-3-(2-(2,5-difluorophenyl)pyrrolidin-1-yl)-N-(3-hydroxypropyl)-1H-pyrazolo[3,4-b]pyridine-5-carboxamide] | < 50 | < 10 | < 50
8 | CC(C)(O)CNC(=O)c1cnc2[nH]nc(N3CCC[C@@H]3c3cc(F)ccc3F)c2c1 [Example 10, (R)-3-(2-(2,5-difluorophenyl)pyrrolidin-1-yl)-N-(2-hydroxy-2-methylpropyl)-1H-pyrazolo[3,4-b]pyridine-5-carboxamide] | < 50 | < 10 | < 10
9 | O=C(NCCCCO)c1cnc2[nH]nc(N3CCC[C@@H]3c3cc(F)ccc3F)c2c1 [Example 12, (R)-3-(2-(2,5-difluorophenyl)pyrrolidin-1-yl)-N-(4-hydroxybutyl)-1H-pyrazolo[3,4-b]pyridine-5-carboxamide] | < 10 | < 50 | < 10
10 | O=C(N[C@H]1CC[C@@H](O)CC1)c1cnc2[nH]nc(N3CCC[C@@H]3c3cc(F)ccc3F)c2c1 [Example 14, 3-((R)-2-(2,5-difluorophenyl)pyrrolidin-1-yl)-N-((1s,4S)-4-hydroxycyclohexyl)-1H-pyrazolo[3,4-b]pyridine-5-carboxamide] | < 10 | < 10 | < 10
11 | CC1(O)CCN(c2cnc(C(=O)Nc3cnc4[nH]nc(N5C[C@@H](F)C[C@@H]5c5cc(F)ccc5F)c4c3)cn2)C1 (stereo partly drawn) [Example 16, N-(3-((2R,4S)-2-(2,5-difluorophenyl)-4-fluoropyrrolidin-1-yl)-1H-pyrazolo[3,4-b]pyridin-5-yl)-5-(3-hydroxy-3-methylpyrrolidin-1-yl)pyrazine-2-carboxamide] | < 1 | < 10 | < 10
